What was measured:
Format in all cases: binding
[1] = test system: human monoclonal antibody CRJB
[2] = test system: human monoclonal antibody CR57
[3] = test system: human monoclonal antibody CRJA
[4] = test system: human monoclonal antibody CRJB; remark: listed apart in the source
[5] = test system: human monoclonal antibody CR57; remark: listed apart in the source
[6] = test system: human monoclonal antibody CRJA; remark: listed apart in the source

Sequence	Binding of CRJB to linear peptide (PEPSCAN-ELISA signal) [1]	Binding of CR57 to linear peptide (PEPSCAN-ELISA signal) [2]	Binding of CRJA to linear peptide (PEPSCAN-ELISA signal) [3]	Binding of CRJB (10 μg/ml) to looped/cyclic peptide (PEPSCAN-ELISA signal) [4]	Binding of CR57 (10 μg/ml) to looped/cyclic peptide (PEPSCAN-ELISA signal) [5]	Binding of CRJA (10 μg/ml) to looped/cyclic peptide (PEPSCAN-ELISA signal) [6]	Binding of human monoclonal antibody CRJB to linear peptide (PEPSCAN-ELISA signal) [1]	Binding of human monoclonal antibody CR57 to linear peptide (PEPSCAN-ELISA signal) [2]	Binding of human monoclonal antibody CRJA to linear peptide (PEPSCAN-ELISA signal) [3]	Binding of CRJB to looped/cyclic peptide (PEPSCAN-ELISA signal) [4]	Binding of CR57 to looped/cyclic peptide (PEPSCAN-ELISA signal) [5]	Binding of CRJA to looped/cyclic peptide (PEPSCAN-ELISA signal) [6]	Binding of CRJB (10 μg/ml) to looped/cyclic peptide (PEPSCAN-ELISA) [4]	Binding of CR57 (10 μg/ml) to looped/cyclic peptide (PEPSCAN-ELISA) [5]	Binding of CRJA (10 μg/ml) to looped/cyclic peptide (PEPSCAN-ELISA) [6]
HFRPTPDACRAAYNW	113	46	93	71	65	62	–	–	–	–	–	–	–	–	–
HHLSCPNNLVVEDEG	76	56	72	58	66	96	–	–	–	–	–	–	–	–	–
HLPDVHNQVSGVDLG	–	–	–	–	–	–	150	104	96	93	119	87	–	–	–
HLRKLVPGFGKAYTI	111	99	116	–	–	–	–	–	–	–	–	–	93	118	120
HLSCPNNLVVEDEGC	119	65	76	64	76	92	–	–	–	–	–	–	–	–	–
HLVVEELVRKREECL	123	82	111	–	–	–	–	–	–	–	–	–	105	110	110
HMELLESSVIPLVHP	129	110	114	–	–	–	–	–	–	–	–	–	104	118	106
HNPYPDYRWLRTVKT	108	86	98	69	85	65	–	–	–	–	–	–	–	–	–
HNQVSGVDLGLPNWG	–	–	–	–	–	–	106	76	66	100	78	55	–	–	–
HPHVNGVFFNGIILG	138	104	89	–	–	–	–	–	–	–	–	–	99	104	91
HPLADPSTVFKDGDE	–	–	–	–	–	–	141	74	100	93	111	115	–	–	–
HSRVFPSGKCSGVAV	118	97	111	104	138	113	–	–	–	–	–	–	–	–	–
HVNGVFFNGIILGPD	123	97	108	–	–	–	–	–	–	–	–	–	92	97	105
HYKSVRTWNEILPSK	130	80	87	–	–	–	–	–	–	–	–	–	101	112	100
IDIHHLSCPNNLVVE	102	69	61	59	55	55	–	–	–	–	–	–	–	–	–
IEHLVVEELVRKREE	129	90	100	–	–	–	–	–	–	–	–	–	112	103	112
IFNKTLMEADAHYKS	118	100	87	–	–	–	–	–	–	–	–	–	86	107	98
IFTNSRGKRASKGSE	125	77	97	75	85	88	–	–	–	–	–	–	–	–	–
IHHLSCPNNLVVEDE	85	37	79	71	46	76	–	–	–	–	–	–	–	–	–
IILGPDGNVLIPEMQ	118	85	80	–	–	–	–	–	–	–	–	–	83	99	107
IISPSVADLDPYDRS	125	83	98	93	115	106	–	–	–	–	–	–	–	–	–
IKMNGFTCTGVVTEA	108	68	88	86	93	99	–	–	–	–	–	–	–	–	–
ILAIKMNGFTCTGVV	103	79	87	72	77	45	–	–	–	–	–	–	–	–	–
ILDKLGPWSPIDIHH	104	54	56	46	80	71	–	–	–	–	–	–	–	–	–
ILGPDGNVLIPEMQS	134	125	90	–	–	–	–	–	–	–	–	–	92	143	100
ILPSKGCLRVGGRCH	113	79	112	–	–	–	–	–	–	–	–	–	91	105	97
IMTTKSVSFRRLSHL	101	43	85	–	–	–	–	–	–	–	–	–	42	74	63
IPEMQSSLLQQHMEL	128	89	60	–	–	–	–	–	–	–	–	–	83	66	54
IPLVHPLADPSTVFK	156	96	130	–	–	–	–	–	–	–	–	–	107	99	106
ISPSVADLDPYDRSL	119	50	56	64	66	46	–	–	–	–	–	–	–	–	–

Reference: patent US20060263802A1 (priority 2003, published 2006)
